Some test systems named below: MCF7; RPMI-8226; 786-0; BT-549; SF-539; DU-145; EKVX; HOP-62; CCRF-CEM; HCC 2998; HL-60; SK-MEL-28; CAKI-1; SF-295; SK-OV-3; OVCAR-3; SK-MEL-5; SF-268; NCI-H460; HT-29.
Holding throughout (experiment): NCI-60 cell line screen, 48 h

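Step 1: Grow cells in 96-well plates. Step 2: Expose to compound for 48 hours at 5 concentrations. Step 3: Interpolate endpoints linearly; if unreached, use highest concentration. GI50 is the concentration that inhibits growth by half.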 Active and inactive are the calls of the source. Rule as the data show it: active = GI50 up to about 1.1 µM and inactive = higher. A value given as a limit tells only on which side of the number the result lay.

Consider `Cn1c(Sc2ccc(-c3cccnc3)n2C)ccc1-c1cccnc1`, for which the GI50 in the assay with MCF7 is 17.7 µM (inactive); in the assay on RPMI-8226 it was 6.65 µM (inactive); in the assay on 786-0, 11.5 µM (inactive); in the assay on BT-549 it was 20.4 µM (inactive); with SF-539, 20.7 µM (inactive); with DU-145 it was 18.1 µM (inactive). The GI50 was 24 µM (inactive) in the assay on EKVX; 17.6 µM (inactive) with HOP-62; 1.96 µM (inactive) in the assay with CCRF-CEM; 20.2 µM (inactive) in the assay on HCC 2998; 2.39 µM (inactive) in the assay with HL-60; 10.3 µM (inactive) in the assay on SK-MEL-28. In addition, the GI50 in the assay on CAKI-1 is 19.1 µM (inactive); in the assay with SF-295, 16.2 µM (inactive); in the assay on SK-OV-3, 27.7 µM (inactive); with OVCAR-3, 11.3 µM (inactive); in the assay on SK-MEL-5, 16.4 µM (inactive); in the assay on SF-268, 10.7 µM (inactive). In addition, the GI50 was 15.2 µM (inactive) with NCI-H460 and 23.7 µM (inactive) in the assay on HT-29.
`N=C(N)SCc1ccc(Cl)c2ccccc12.O=[N+]([O-])c1c(O)c(Cl)cc(Cl)c1Cl`: the GI50 in the assay on MCF7 is 11.2 µM (inactive); in the assay on RPMI-8226, 2.64 µM (inactive); with 786-0, 11.3 µM (inactive); in the assay with BT-549, 14.8 µM (inactive); in the assay on SF-539 it was 8.65 µM (inactive); in the assay on DU-145, 14 µM (inactive). Also, the GI50 in the assay on EKVX is 7.03 µM (inactive); in the assay on HOP-62, 11.5 µM (inactive); in the assay with CCRF-CEM, 9.59 µM (inactive); with HCC 2998, 2.33 µM (inactive); in the assay with HL-60 it was 4.38 µM (inactive); with SK-MEL-28 it was 14.1 µM (inactive). The GI50 with CAKI-1 is 5.57 µM (inactive); in the assay on SF-295 it was 11.6 µM (inactive); with SK-OV-3 it was 13.1 µM (inactive); in the assay on OVCAR-3, 9.18 µM (inactive); in the assay on SK-MEL-5, 12.6 µM (inactive); in the assay with SF-268 it was 15.7 µM (inactive). Further, the GI50 in the assay with NCI-H460 was 8.32 µM (inactive); in the assay on HT-29, 10.2 µM (inactive).
Turning to `C=C(C)c1nc(Oc2ccccc2)nc(Oc2ccccc2)n1`, the GI50 in the assay on MCF7 is 3.08 µM (inactive); with RPMI-8226 it was 1.57 µM (inactive); in the assay with 786-0, 4.58 µM (inactive); with BT-549 it was 3.32 µM (inactive); in the assay with SF-539, 6.37 µM (inactive); in the assay with DU-145 it was 16.5 µM (inactive). The GI50 in the assay with EKVX was 13.6 µM (inactive); in the assay on HOP-62, 16.1 µM (inactive); with CCRF-CEM, 2.54 µM (inactive); with HCC 2998, 3.99 µM (inactive); with HL-60, 2.06 µM (inactive); in the assay with SK-MEL-28, 3.86 µM (inactive). Moreover, the GI50 in the assay on CAKI-1 was 2.06 µM (inactive); with SF-295, 14.9 µM (inactive); in the assay on SK-OV-3, 17.6 µM (inactive); in the assay on OVCAR-3 it was 6.04 µM (inactive); in the assay on SK-MEL-5, 13.7 µM (inactive); in the assay on SF-268, 4.79 µM (inactive). Also, the figures for the GI50 in the assay on NCI-H460 and in the assay with HT-29 were 9.04 µM (inactive) and 3.99 µM (inactive), respectively.
On to `OCCN(CCO)CCn1cnc2c(NCc3ccccc3)ncnc21`, for which the GI50 in the assay on MCF7, in the assay on RPMI-8226, in the assay with 786-0, in the assay with BT-549, in the assay with SF-539 and in the assay with DU-145 was > 100 µM (inactive) in each case. Besides, the GI50 with EKVX, in the assay with HOP-62, with CCRF-CEM, in the assay with HCC 2998, in the assay with HL-60 and in the assay on SK-MEL-28 was > 100 µM (inactive) each time. In addition, the GI50 in the assay with CAKI-1, in the assay with SF-295, with SK-OV-3, in the assay on OVCAR-3, in the assay on SK-MEL-5 and with SF-268 was > 100 µM (inactive) throughout. The GI50 with NCI-H460 and in the assay with HT-29 was > 100 µM (inactive) in each case.
For the compound `CCOC(=O)c1cc2c([N+](=O)[O-])c(N)ccc2s1`, the GI50 in the assay with MCF7, in the assay on RPMI-8226, in the assay on 786-0, in the assay with BT-549, in the assay with SF-539 and with DU-145 was > 100 µM (inactive) throughout. The GI50 in the assay with EKVX is 57 µM (inactive); with HOP-62, > 100 µM (inactive); in the assay on CCRF-CEM, > 100 µM (inactive); in the assay with HCC 2998, > 100 µM (inactive); in the assay with HL-60 it was > 100 µM (inactive); in the assay with SK-MEL-28, > 100 µM (inactive). For the same compound, the GI50 with CAKI-1, with SF-295, in the assay on SK-OV-3, in the assay on OVCAR-3, in the assay on SK-MEL-5 and with SF-268 was > 100 µM (inactive) each time. The GI50 in the assay with NCI-H460 and in the assay with HT-29 was > 100 µM (inactive) throughout.
In the case of `CN(CCNC(=O)c1cn(C)c2c1ccc1cc(Cl)c(Cl)cc12)CCNC(=O)c1cn(C)c2c1ccc1cc(Cl)c(Cl)cc12`, the GI50 in the assay on MCF7 is 1.96 µM (inactive); with RPMI-8226 it was 2.65 µM (inactive); in the assay on 786-0 it was 1.65 µM (inactive); in the assay on BT-549, 19.7 µM (inactive); in the assay with SF-539, 2.61 µM (inactive); in the assay on DU-145 it was 1.82 µM (inactive). In addition, the GI50 is 2.7 µM (inactive) in the assay with EKVX; 1.79 µM (inactive) in the assay with HOP-62; 1.61 µM (inactive) in the assay with CCRF-CEM; 1.69 µM (inactive) with HCC 2998; 1.32 µM (inactive) in the assay on HL-60; 1.73 µM (inactive) in the assay on SK-MEL-28. For the same compound, the GI50 is 3.84 µM (inactive) with CAKI-1; 2.22 µM (inactive) in the assay with SF-295; 2.03 µM (inactive) with SK-OV-3; 2.18 µM (inactive) in the assay with OVCAR-3; 12.5 µM (inactive) with SK-MEL-5; 2.75 µM (inactive) in the assay on SF-268. For the same compound, the GI50 with NCI-H460 is 1.9 µM (inactive); in the assay on HT-29 it was 1.75 µM (inactive).
As to `O=C1/C(=C/c2ccc(Cl)cc2)CCC1CN1CCOCC1` (stereo not given), the GI50 in the assay on MCF7 is 3.77 µM (inactive); in the assay on RPMI-8226, 0.818 µM (active); with 786-0, 2.48 µM (inactive); in the assay on BT-549, 11.3 µM (inactive); with SF-539 it was 10.6 µM (inactive); in the assay on DU-145, 11.5 µM (inactive). Further, the GI50 in the assay with EKVX is 12.2 µM (inactive); with HOP-62, 16.1 µM (inactive); with CCRF-CEM, 1.13 µM (inactive); in the assay on HCC 2998 it was 9.75 µM (inactive); with HL-60, 0.836 µM (active); in the assay on SK-MEL-28 it was 8 µM (inactive). Moreover, the GI50 was 4.37 µM (inactive) with CAKI-1; 17.5 µM (inactive) in the assay on SF-295; 18 µM (inactive) with SK-OV-3; 6.37 µM (inactive) with OVCAR-3; 12.5 µM (inactive) with SK-MEL-5; 14.3 µM (inactive) in the assay with SF-268. The GI50 in the assay on NCI-H460 is 14.9 µM (inactive); with HT-29 it was 7.03 µM (inactive).
Take `SC1=NC2=C(CSC/C2=C\c2ccccc2)C(c2ccccc2)N1` (stereo not given): the GI50 was 30.9 µM (inactive) with MCF7; 35.2 µM (inactive) with RPMI-8226; 34.2 µM (inactive) in the assay with 786-0; 26.2 µM (inactive) with BT-549; 76.6 µM (inactive) in the assay with SF-539; 95.1 µM (inactive) with DU-145. Further, the GI50 in the assay with EKVX was 45.5 µM (inactive); in the assay on HOP-62 it was > 100 µM (inactive); in the assay on CCRF-CEM it was 36.6 µM (inactive); in the assay with HCC 2998, 42.5 µM (inactive); with HL-60 it was 15.2 µM (inactive); in the assay on SK-MEL-28 it was > 100 µM (inactive). Moreover, the GI50 in the assay with CAKI-1 is > 100 µM (inactive); in the assay on SF-295, 21.6 µM (inactive); in the assay with SK-OV-3, 92.7 µM (inactive); with OVCAR-3, > 100 µM (inactive); with SK-MEL-5, 12.1 µM (inactive); in the assay on SF-268 it was 64.6 µM (inactive). In addition, the GI50 is 33 µM (inactive) with NCI-H460 and 32.6 µM (inactive) in the assay with HT-29.
On to `CC(=O)OCC1=C(C(=O)O)N2C(=O)C(NC(=O)CSc3ccncc3)C2SC1` (stereo not given), for which the GI50 in the assay with MCF7, in the assay with RPMI-8226, in the assay with 786-0, in the assay on BT-549, in the assay with SF-539 and in the assay on DU-145 was > 100 µM (inactive) throughout. For the same compound, the GI50 in the assay on EKVX, in the assay on HOP-62, in the assay on CCRF-CEM, in the assay on HCC 2998, with HL-60 and in the assay on SK-MEL-28 was > 100 µM (inactive) each time. In addition, the GI50 in the assay on CAKI-1, with SF-295, in the assay with SK-OV-3, with OVCAR-3, in the assay with SK-MEL-5 and in the assay with SF-268 was > 100 µM (inactive) each time. The GI50 in the assay on NCI-H460 and in the assay on HT-29 was > 100 µM (inactive) in each case.
Take `CNC=O`: the GI50 in the assay on MCF7, in the assay on RPMI-8226, with 786-0, with BT-549, in the assay on SF-539 and in the assay on DU-145 was > 10000 µM (inactive) throughout. In addition, the GI50 in the assay on EKVX is > 10000 µM (inactive); with HOP-62 it was > 3980 µM (inactive); with CCRF-CEM, > 10000 µM (inactive); in the assay on HCC 2998 it was > 3980 µM (inactive); with HL-60, > 10000 µM (inactive); in the assay on SK-MEL-28 it was > 10000 µM (inactive). Further, the GI50 with CAKI-1 was > 10000 µM (inactive); in the assay on SF-295, > 9510 µM (inactive); in the assay on SK-OV-3, > 3980 µM (inactive); with OVCAR-3, > 9310 µM (inactive); with SK-MEL-5, > 10000 µM (inactive); in the assay on SF-268, > 10000 µM (inactive). The GI50 with NCI-H460 and in the assay with HT-29 was > 10000 µM (inactive) in each case.

Source of the values: ChEMBL document CHEMBL1201862, “PubChem BioAssay data set” (2004).
